From PubChem BioAssay (NCI)
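Step 1: Grow cells in 96-well plates. Step 2: Expose to compound for 48 hours at 5 concentrations. Step 3: Interpolate endpoints linearly; if unreached, use highest concentration. TGI marks complete inhibition of growth.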

Experiments:
Experiment in all cases: NCI-60 cell line screen, 48 h
[1] = test system: OVCAR-4 ovarian
[2] = test system: HS 578T breast
[3] = test system: 786-0 renal
[4] = test system: LOX IMVI melanoma
[5] = test system: ACHN renal
[6] = test system: A498 renal
[7] = test system: TK-10 renal
[8] = test system: A549 NSCLC
[9] = test system: SN12C renal
[10] = test system: SNB-75 CNS
[11] = test system: SK-MEL-5 melanoma
[12] = test system: SF-295 CNS
[13] = test system: MCF7 breast
[14] = test system: OVCAR-8 ovarian
[15] = test system: UACC-62 melanoma
[16] = test system: RPMI-8226 leukemia
[17] = test system: SR leukemia
[18] = test system: T-47D breast
[19] = test system: UO-31 renal
[20] = test system: U251 CNS
[21] = test system: BT-549 breast
[22] = test system: IGROV1 ovarian
[23] = test system: SF-539 CNS
[24] = test system: NCI/ADR-RES ovarian
[25] = test system: SK-OV-3 ovarian
[26] = test system: SF-268 CNS
[27] = test system: HCC-2998 colon
[28] = test system: HT29 colon
[29] = test system: M14 melanoma
[30] = test system: HCT-116 colon
[31] = test system: CCRF-CEM leukemia
[32] = test system: EKVX NSCLC
[33] = test system: KM12 colon
[34] = test system: MOLT-4 leukemia
[35] = test system: COLO 205 colon
[36] = test system: CAKI-1 renal
[37] = test system: SK-MEL-28 melanoma
[38] = test system: K-562 leukemia
[39] = test system: OVCAR-5 ovarian
[40] = test system: SK-MEL-2 melanoma
[41] = test system: DU-145 prostate
[42] = test system: MDA-MB-231 breast
[43] = test system: HOP-92 NSCLC
[44] = test system: SNB-19 CNS
[45] = test system: NCI-H460 lung
[46] = test system: SW-620 colon
[47] = test system: NCI-H23 lung
[48] = test system: OVCAR-3 ovarian
[49] = test system: NCI-H522 lung
[50] = test system: HCT-15 colon
[51] = test system: MDA-MB-435
[52] = test system: HOP-62 NSCLC
[53] = test system: HL-60(TB) leukemia
[54] = test system: NCI-H226 lung
[55] = test system: PC-3 prostate
[56] = test system: RXF 393 renal
[57] = test system: MDA-N
[58] = test system: UACC-257 melanoma
[59] = test system: MALME-3M melanoma

CCC(=O)c1cc(C(=O)C(=S)SC)cc(C(=O)C(=S)SC)c1
TGI [1]: > 100 µM | TGI [2]: > 100 µM | TGI [3]: > 100 µM | TGI [4]: > 100 µM | TGI [5]: > 100 µM | TGI [6]: > 100 µM | TGI [7]: > 100 µM | TGI [8]: > 100 µM | TGI [9]: > 100 µM | TGI [10]: > 100 µM | TGI [11]: > 100 µM | TGI [12]: > 100 µM | TGI [13]: > 100 µM | TGI [14]: > 100 µM | TGI [15]: > 100 µM | TGI [16]: > 100 µM | TGI [17]: > 100 µM | TGI [18]: > 100 µM | TGI [19]: > 100 µM | TGI [20]: > 100 µM | TGI [21]: > 100 µM | TGI [22]: > 100 µM | TGI [23]: > 100 µM | TGI [24]: > 100 µM | TGI [25]: > 100 µM | TGI [26]: > 100 µM | TGI [27]: > 100 µM | TGI [28]: > 100 µM | TGI [29]: > 100 µM | TGI [30]: > 100 µM | TGI [31]: > 24.6 µM | TGI [32]: > 100 µM | TGI [33]: > 100 µM | TGI [34]: > 63.4 µM | TGI [35]: > 100 µM | TGI [36]: > 100 µM | TGI [37]: > 100 µM | TGI [38]: > 100 µM | TGI [39]: > 100 µM | TGI [40]: > 100 µM | TGI [41]: > 100 µM | TGI [42]: > 100 µM | TGI [43]: > 100 µM | TGI [44]: > 100 µM | TGI [45]: > 100 µM | TGI [46]: > 100 µM | TGI [47]: > 100 µM | TGI [48]: > 100 µM | TGI [49]: > 100 µM | TGI [50]: > 100 µM | TGI [51]: > 100 µM | TGI [52]: > 100 µM | TGI [53]: > 72.6 µM | TGI [54]: > 100 µM | TGI [55]: > 100 µM | TGI [56]: > 100 µM | TGI [57]: > 100 µM | TGI [58]: > 100 µM | TGI [59]: > 100 µM
